Several values for one entry are separate records, joined by “and”; a condition that tells them apart may be missing. Equal entries are not always repeated. Structures can show the parent of a compound that is named as a salt. Where two headings read alike, the source gives them in different places. Some results are limits rather than exact numbers.

The results in this text go back to patent US10975056B2 (GlaxoSmithKline Intellectual Property Development Limited, priority 2016, dated 2021).

In test [1] the test system is erythroid progenitor cells (EPCs). In words: Fetal hemoglobin (HbF) ELISA in day 7 erythroid progenitor cells.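 Note: for fetal hemoglobin induction normalized to vehicle-treated cells.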 In kind it is cell-based, human. As to conditions: Homo sapiens, Erythroid progenitor cell, HbF ELISA, day 7 EPCs, 5 days; read-out: EPC ELISA (pEC50 category) (converted). The gist of the method:
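HbF induction was read by anti-HbF sandwich ELISA (HRP/TMB, OD450) on lysates and normalized to vehicle-treated cells. Cells were day 7 erythroid progenitors derived from human bone marrow CD34+ cells, seeded at 1,000/well with 3 U/mL rhEPO. Compound was given for 5 days at 37 °C at final concentrations […].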
Background: An ELISA detects its analyte on a solid surface through an enzyme-linked reagent.

Test [2] has as its target DNMT1 (Homo sapiens, UniProt P26358). In words: DNMT1 biochemical activity, breaklight assay and/or SPA assay.
Setting [3] is: binned activity in either the breaklight or the SPA assay.
Setting [4] is: binned activity in either the breaklight or the SPA assay, read-out: DNMT1 BioChemical (pIC50 category) (converted).
The mark [5] stands for this setting: breaklight assay and/or SPA assay, repeated experimental runs.

Sequence of DNMT1 (P26358 whole entry, looked up): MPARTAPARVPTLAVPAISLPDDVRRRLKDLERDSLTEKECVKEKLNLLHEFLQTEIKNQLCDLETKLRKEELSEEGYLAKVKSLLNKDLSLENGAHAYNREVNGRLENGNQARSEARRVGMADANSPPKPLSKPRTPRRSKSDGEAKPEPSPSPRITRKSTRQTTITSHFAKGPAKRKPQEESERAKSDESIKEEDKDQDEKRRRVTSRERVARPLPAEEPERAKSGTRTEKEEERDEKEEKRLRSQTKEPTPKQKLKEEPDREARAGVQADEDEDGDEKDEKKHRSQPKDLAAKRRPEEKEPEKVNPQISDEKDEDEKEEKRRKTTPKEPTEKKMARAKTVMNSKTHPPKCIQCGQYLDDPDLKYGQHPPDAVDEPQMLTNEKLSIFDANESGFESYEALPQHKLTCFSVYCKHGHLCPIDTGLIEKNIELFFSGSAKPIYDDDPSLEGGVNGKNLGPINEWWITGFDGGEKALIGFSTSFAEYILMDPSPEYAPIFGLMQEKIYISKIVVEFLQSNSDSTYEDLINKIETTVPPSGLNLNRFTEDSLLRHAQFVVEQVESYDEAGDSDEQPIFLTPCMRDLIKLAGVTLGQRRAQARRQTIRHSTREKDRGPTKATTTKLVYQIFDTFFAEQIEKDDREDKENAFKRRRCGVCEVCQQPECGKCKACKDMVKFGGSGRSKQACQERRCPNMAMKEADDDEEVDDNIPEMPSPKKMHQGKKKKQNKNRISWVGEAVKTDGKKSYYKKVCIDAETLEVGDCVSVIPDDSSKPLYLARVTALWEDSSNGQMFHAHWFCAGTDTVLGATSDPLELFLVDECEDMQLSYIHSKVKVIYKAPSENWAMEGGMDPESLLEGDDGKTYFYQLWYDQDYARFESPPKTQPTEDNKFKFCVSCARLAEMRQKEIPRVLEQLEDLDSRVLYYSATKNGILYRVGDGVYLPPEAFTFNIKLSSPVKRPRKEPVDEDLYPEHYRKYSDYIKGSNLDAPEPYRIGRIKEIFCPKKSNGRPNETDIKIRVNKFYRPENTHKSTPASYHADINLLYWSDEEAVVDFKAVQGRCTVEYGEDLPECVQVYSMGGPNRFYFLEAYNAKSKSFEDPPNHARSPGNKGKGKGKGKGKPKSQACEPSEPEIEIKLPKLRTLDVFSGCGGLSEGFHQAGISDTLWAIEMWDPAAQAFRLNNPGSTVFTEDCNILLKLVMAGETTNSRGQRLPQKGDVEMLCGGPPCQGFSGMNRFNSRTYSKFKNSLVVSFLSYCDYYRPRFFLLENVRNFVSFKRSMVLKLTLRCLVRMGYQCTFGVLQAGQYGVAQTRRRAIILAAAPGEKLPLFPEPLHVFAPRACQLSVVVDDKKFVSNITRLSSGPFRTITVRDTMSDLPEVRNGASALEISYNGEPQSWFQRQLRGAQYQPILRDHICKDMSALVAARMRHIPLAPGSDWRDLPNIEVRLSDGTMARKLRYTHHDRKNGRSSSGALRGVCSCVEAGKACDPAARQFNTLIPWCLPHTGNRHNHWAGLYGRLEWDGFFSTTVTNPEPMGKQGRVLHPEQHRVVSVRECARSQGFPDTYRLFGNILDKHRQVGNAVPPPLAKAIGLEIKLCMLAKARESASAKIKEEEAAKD

Consider `CCc1c(C#N)c(SC(C(N)=O)c2ccccc2)nc(N2CC(N)C2)c1C#N` (centres unmarked) [Example 281, 2-((6-(3-Aminoazetidin-1-yl)-3,5-dicyano-4-ethylpyridin-2-yl)thio)-2-phenylacetamide], for which the EC50 in test [1] was 316 to 1000 nM. For the same molecule, the “DNMT1 BioChemical (pIC50 category)” value in test [2] (setting [3]) is listed as “D (Category D: ≥6.5)”.

For the molecule `CN(CC(N)=O)c1nc(SC(C(N)=O)c2ccccc2)c(C#N)c(C2CC2)c1C#N` (centres unmarked) [Example 396, 2-((6-((2-Amino-2-oxoethyl)(methyl)amino)-3,5-dicyano-4-cyclopropylpyridin-2-yl)thio)-2-phenylacetamide], the EC50 in test [1] was 1000 to 31600 nM. Besides, the IC50 in test [2] (setting [4]) is 316 to 1000 nM.

As for `CCc1c(C#N)c(SC(C(N)=O)c2ccccc2)nc(N2CCC(OCCN)CC2)c1C#N` (centres unmarked) [Example 149, 2-((6-(4-(2-Aminoethoxy)piperidin-1-yl)-3,5-dicyano-4-ethylpyridin-2-yl)thio)-2-phenylacetamide, Trifluoroacetic Acid Salt], the EC50 in test [1] was < 316 nM. Also, the “DNMT1 BioChemical (pIC50 category)” value in test [2] (setting [3]) is given as “D (Category D: ≥6.5)”. Also, in test [2] (setting [5]), the “average pIC50 against DNMT1” value is given as > 6.5.

Consider `CCc1c(C#N)c(SC(C(N)=O)c2ccccc2)nc(N2CCC(NC(=O)CN)CC2)c1C#N` (centres unmarked) [Example 137, 2-Amino-N-(1-(6-((2-amino-2-oxo-1-phenylethyl)thio)-3,5-dicyano-4-ethylpyridin-2-yl)piperidin-4-yl)acetamide, Trifluoroacetic Acid Salt], for which, in test [1], the EC50 is 316 to 1000 nM. Further, the “DNMT1 BioChemical (pIC50 category)” value in test [2] (setting [3]) is listed as “D (Category D: ≥6.5)”. In test [2] (setting [5]), the “average pIC50 against DNMT1” value is given as > 6.5.

For `CCc1c(C#N)c(SC(C(N)=O)c2ccccc2)nc(N2CCC(NCc3ccc(OC)nc3)CC2)c1C#N` (centres unmarked) [Example 467, 2-((3,5-dicyano-4-ethyl-6-(4-(((6-methoxypyridin-3-yl)methyl)amino)piperidin-1-yl)pyridin-2-yl)thio)-2-phenylacetamide], the EC50 in test [1] was < 316 nM. In addition, the “DNMT1 BioChemical (pIC50 category)” value in test [2] (setting [3]) is listed as “D (Category D: ≥6.5)”.

Take `CCc1c(C#N)c(SC(C(N)=O)c2ccccc2)nc(N(C)CCN2CC[C@H](N)C2)c1C#N` (stereo partly drawn) [Example 535, 2-((6-((2-((S)-3-aminopyrrolidin-1-yl)ethyl)(methyl)amino)-3,5-dicyano-4-ethylpyridin-2-yl)thio)-2-phenylacetamide]: the EC50 in test [1] is 316 to 1000 nM. In addition, the “DNMT1 BioChemical (pIC50 category)” value in test [2] (setting [3]) is recorded as “D (Category D: ≥6.5)”.

With `CCc1c(C#N)c(SC(C(N)=O)c2ccccc2)nc(N2CCN(CCO)C(=O)C2)c1C#N` (centres unmarked) [Example 504, 2-((3,5-dicyano-4-ethyl-6-(4-(2-hydroxyethyl)-3-oxopiperazin-1-yl)pyridin-2-yl)thio)-2-phenylacetamide], the EC50 in test [1] is 1000 to 31600 nM. In addition, the “DNMT1 BioChemical (pIC50 category)” value in test [2] (setting [3]) is “D (Category D: ≥6.5)”.

For the molecule `CCc1c(C#N)c(S[C@H](C(N)=O)c2ccccc2)nc(N2CC[C@H](N)[C@H](F)C2)c1C#N` [Example 540, (S)-2-((6-((3R,4S)-4-amino-3-fluoropiperidin-1-yl)-3,5-dicyano-4-ethylpyridin-2-yl)thio)-2-phenylacetamide 2,2,2-trifluoroacetate], in test [1], the EC50 is < 316 nM. Also, the IC50 is 1000 to 31600 nM in test [2] (setting [4]); ≥ 1000 nM and 3160 nM in test [2] (breaklight assay and/or SPA assay, repeated experimental runs, read-out: average pIC50 against DNMT1 (converted)).

With `CCc1c(C#N)c(SC(C(N)=O)c2ccc(F)cc2F)nc(N2CCC(N(C)C)CC2)c1C#N` (centres unmarked) [Example 210, 2-((3,5-Dicyano-6-(4-(dimethylamino)piperidin-1-yl)-4-ethylpyridin-2-yl)thio)-2-(2,4-difluorophenyl)acetamide], in test [1], the EC50 is < 316 nM. Besides, the “DNMT1 BioChemical (pIC50 category)” value in test [2] (setting [3]) is “D (Category D: ≥6.5)”.

On to `CCc1c(C#N)c(SCc2ccc(N(C)S(C)(=O)=O)cc2)nc(N2CCC(N)CC2)c1C#N` [Example 587, N-(4-(((6-(4-aminopiperidin-1-yl)-3,5-dicyano-4-ethylpyridin-2-yl)thio)methyl)phenyl)-N-methylmethanesulfonamide], for which the EC50 in test [1] is < 316 nM. Besides, the “DNMT1 BioChemical (pIC50 category)” value in test [2] (setting [3]) is “D (Category D: ≥6.5)”.
